# Values of other authors, collected in US11033514B2 (priority 2016, dated 2021).
# [1] = Nguyen et al. (2009), oral dose 5 grams
SMILES,"Half life in blood (in vivo, po) [h]","Plasma level (in vivo, po) [nM]","Half-Life (Goldberg et al. (2003), oral dose 25 mg) [h]",% of orally administered dose of resveratrol bioavailable [1],Unconjugated/Free Resveratrol in plasma (Bioavailability) [1] [nmol/L]
Oc1ccc(/C=C/c2cc(O)cc(O)c2)cc1 [Synthetic resveratrol],0.5,5 to 40,–,–,–
"Oc1ccc(/C=C/c2cc(O)cc(O)c2)cc1 [resveratrol, 3,5,4′-trihydroxy-trans-stilbene]",–,–,2,(0.012% of orally,2400
